Assay results published in PubChem BioAssay (NCI).
“And” between values parts separate entries of the source, which are not always exact repeats. Equal values may be shown once.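 48-hour exposure; five concentrations; linearly interpolated endpoints. GI50: concentration for 50% inhibition of growth. TGI: concentration producing complete growth inhibition.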

Columns and labels:
Experiment in all cases: DTP human tumour cell line panel, 48 h
[1] = tested on: CCRF-CEM leukemia
[2] = tested on: EKVX NSCLC
[3] = tested on: HCT-15 colon
[4] = tested on: LOX IMVI melanoma
[5] = tested on: MALME-3M melanoma
[6] = tested on: MDA-MB-231 breast
[7] = tested on: OVCAR-4 ovarian
[8] = tested on: SK-MEL-28 melanoma
[9] = tested on: T-47D breast
[10] = tested on: OVCAR-3 ovarian

SMILES	TGI [1]	TGI [2]	TGI [3]	TGI [4]	TGI [5]	TGI [6] [µM]	TGI [7]	TGI [8]	TGI [9] [µM]	GI50 [1] [µM]	GI50 [3] [µM]	GI50 [4] [µM]	GI50 [5] [µM]	GI50 [6] [µM]	GI50 [10] [µM]	TGI [10] [µM]	GI50 [7] [µM]	GI50 [8] [µM]	GI50 [9] [µM]	GI50 [2] [µM]
COc1cc([C@H]2c3[nH]c4ccccc4c3C[C@H]3COC(=O)N32)cc(OC)c1O	12.4 µM	22.7 µM	38.5 µM	20.8 µM	> 100 µM	49.8	> 100 µM	> 80 µM	> 100											
COc1ccc(-c2cc(/C=C/C(=O)c3cc(OC)c(OC)c(OC)c3)[nH]n2)cc1OC	3.13 µM		3.85 µM	2.88 µM	6.19 µM	13.5	7.17 µM	4.41 µM	3.76	0.342	1.19	1.46	2.32	2.02	1.59	3.15	1.62	1.92	1.01	
O=C(O)C1C(C(=O)O)C2(Cl)C(Cl)=C(Cl)C1(Cl)C2(Cl)Cl.[Cd] (stereo not drawn)	61.4 µM	35.6 µM	46.6 µM	33.5 µM	7.05 µM	42.4	37.5 µM	54.7 µM	28.1	16.5	21.4	16.8	2.33	20.9	7.81	19.7	14.9	24.1	11.4	19.9
C=CC(=O)Nc1cccc(Nc2nc(Nc3ccc(OCCOC(F)F)cc3)ncc2F)c1	94 µM	> 100 µM	> 100 µM	4.52 µM	35.1 µM	51.1	> 100 µM	> 100 µM	9.98	5.17	1.97	1.37	2.49	5.02	2.32	14.1	2.66	7.36	1.83	4.3
Cc1ccc(/C=C2\CNC/C(=C\c3ccc(C)cc3)C2=O)cc1	7.82 µM and 8.71 µM	8.3 µM and 20.8 µM	1.45 µM and 3.62 µM	1.49 µM and 2.11 µM	6.37 µM and 38.5 µM	> 24.6	4.04 µM and 23.1 µM	4.05 µM and 4.83 µM	> 24.8	2.74	0.407	0.403	2.4		1.27		1.89			2.85
CC[C@@]1(O)C(=O)OCc2c1cc1n(c2=O)Cc2cc3c(N)cccc3nc2-1		7.96 µM	33.7 µM	0.255 µM	1.88 µM	> 19.9	3.62 µM	16.3 µM		0.00158		0.00462				1.42			0.00662	
O=c1[nH]c2cc(Cl)c(Cl)cc2n2cc3ccccc3c12	48.9 µM	43.5 µM	30.2 µM	31 µM	32.7 µM	32.7	49.8 µM	> 100 µM	75.5	22.1	16.6	17.3	17.1	17.2	18.4	32.4	20.3	33	30.8	21.9
Fc1cc(-c2nnc3n2N=C(c2ccc(Cl)cc2Cl)CS3)c(Cl)cc1Cl	> 100 µM	> 100 µM	> 100 µM	> 100 µM	94.4 µM	> 100	> 100 µM	> 100 µM	48.5	27.6	38.3	34.3	26.6	33.7	22.8	88.1	> 100	40.2	11.7	58.5
CCCCCCCCCCCCCCCCS(=O)(=O)c1ccc(NN)cc1	4.34 µM	> 10 µM	> 10 µM	> 10 µM	> 10 µM	> 10	> 10 µM	> 10 µM	> 10							> 10				
O=C(Nc1ccccc1O)c1ccc(CNC(=O)c2ccsc2Nc2ccnc(C(F)(F)F)c2)cc1	> 100 µM	14.5 µM	18.9 µM	3.99 µM	6.65 µM	13.2	> 100 µM	6.79 µM	> 100	0.32	3.31	1.63	1.7	2.85	1.85	4.8	1.74	2.15	2.71	3.09
O=C(O)Cn1ccnc1[N+](=O)[O-]	> 100 µM	> 100 µM	> 100 µM		> 100 µM	> 100	> 100 µM	> 100 µM	> 100							> 100				
O=C(Nc1ccc(Cl)cc1)Nc1ccccc1CNc1nc(Nc2ccc(OCCN3CCCC3)cc2)ncc1Cl	3.43 µM	6.63 µM	2.6 µM	1.64 µM	1.59 µM	1.84	1.66 µM	1.58 µM	18	1.32	1.01	0.901	0.828	0.888	0.935	1.71	0.862	0.855	6.47	1.55
COc1ccc2[nH]c(-c3ccccc3)cc2c1	> 100 µM	> 100 µM	> 100 µM	> 100 µM	> 100 µM	> 100	> 100 µM	> 100 µM	> 100	68.5	> 100	> 100	> 100	61.8	> 100	> 100	92.3	> 100	19.3	59
CC(C)(C)[Si](C)(C)OCC1OC(n2cnc3c(N)ncnc32)C(O)C1O (stereo not drawn)	> 100 µM	> 100 µM	> 100 µM	> 100 µM	> 100 µM	> 100	> 100 µM	> 100 µM	> 100							> 100				
COc1cc2cc(Oc3ccc(NC(=O)c4cccc5c4OCCO5)cc3)c(C)nc2cc1OC	> 100 µM	> 100 µM	> 100 µM	> 100 µM	> 100 µM	> 100	35 µM	> 100 µM	15.4	4.18	7.87	9.28	8.76	6.06	17.1	> 100	3.32	19.2	2.82	5.32
